Measurements as given in the NIST ThermoML archive (doi:10.1021/je900284z).
Values joined by “and” are separate entries in the source; they are usually repeats but may differ in a detail not shown here. Equal values may be shown once.

Conditions: Liquid; for viscosity: Falling or rolling sphere viscometry; for mass density: 101.33 kPa

CCCCC(CC)COC(=O)c1ccccc1 (stereo not drawn) [2-ethylhexyl benzoate]
Conditions	viscosity
263.15 K, 100 kPa	29.42 mPa·s and 29.39 mPa·s
268.15 K, 100 kPa	21.45 mPa·s and 21.43 mPa·s
273.15 K, 100 kPa	16.21 mPa·s and 16.22 mPa·s
273.15 K, 700 kPa	16.39 mPa·s
273.15 K, 14200 kPa	20.88 mPa·s
273.15 K, 16100 kPa	22.11 mPa·s
273.15 K, 29700 kPa	28.8 mPa·s
273.15 K, 45500 kPa	38.79 mPa·s
273.15 K, 47100 kPa	39.5 mPa·s
273.15 K, 60900 kPa	51.94 mPa·s
273.15 K, 81800 kPa	78.37 mPa·s
273.15 K, 102000 kPa	114.7 mPa·s
273.15 K, 110600 kPa	132.5 mPa·s
273.15 K, 149800 kPa	286.9 mPa·s
283.15 K, 100 kPa	10.07 mPa·s
293.15 K, 100 kPa	6.753 mPa·s and 6.756 mPa·s
298.15 K, 100 kPa	5.574 mPa·s and 5.529 mPa·s
298.15 K, 300 kPa	5.708 mPa·s
298.15 K, 900 kPa	5.771 mPa·s
298.15 K, 26000 kPa	8.4 mPa·s
298.15 K, 50900 kPa	12.07 mPa·s
298.15 K, 75600 kPa	17.19 mPa·s
298.15 K, 100800 kPa	24.58 mPa·s
298.15 K, 125500 kPa	34.9 mPa·s
298.15 K, 150900 kPa	49.92 mPa·s
298.15 K, 175100 kPa	70.34 mPa·s
298.15 K, 200700 kPa	101 mPa·s
298.15 K, 225200 kPa	143.1 mPa·s
298.15 K, 250700 kPa	206 mPa·s
303.15 K, 100 kPa	4.847 mPa·s
313.15 K, 100 kPa	3.641 mPa·s and 3.644 mPa·s and 3.646 mPa·s
323.15 K, 100 kPa	2.859 mPa·s and 2.857 mPa·s
323.15 K, 25900 kPa	3.952 mPa·s
323.15 K, 50900 kPa	5.32 mPa·s
323.15 K, 75800 kPa	7.088 mPa·s
323.15 K, 100600 kPa	9.368 mPa·s
323.15 K, 125700 kPa	12.33 mPa·s
323.15 K, 150400 kPa	16.17 mPa·s
323.15 K, 174800 kPa	20.75 mPa·s
323.15 K, 175600 kPa	21.33 mPa·s
323.15 K, 200800 kPa	28.03 mPa·s
323.15 K, 225600 kPa	36.82 mPa·s
323.15 K, 250400 kPa	48.19 mPa·s
323.15 K, 275200 kPa	62.86 mPa·s
323.15 K, 300000 kPa	82.18 mPa·s
323.15 K, 300100 kPa	82.04 mPa·s
333.15 K, 100 kPa	2.3 mPa·s
343.15 K, 100 kPa	1.834 mPa·s [middle of 5 runs]
348.15 K, 100 kPa	1.728 mPa·s and 1.73 mPa·s
348.15 K, 10800 kPa	1.956 mPa·s
348.15 K, 25400 kPa	2.3 mPa·s
348.15 K, 50800 kPa	2.994 mPa·s
348.15 K, 75900 kPa	3.826 mPa·s
348.15 K, 100800 kPa	4.842 mPa·s
348.15 K, 125700 kPa	6.009 mPa·s
348.15 K, 150700 kPa	7.634 mPa·s
348.15 K, 175700 kPa	9.511 mPa·s
348.15 K, 200700 kPa	11.85 mPa·s
348.15 K, 225700 kPa	14.77 mPa·s
348.15 K, 250500 kPa	18.23 mPa·s
348.15 K, 275300 kPa	22.56 mPa·s
348.15 K, 276300 kPa	22.83 mPa·s
348.15 K, 302300 kPa	28.48 mPa·s
348.15 K, 315200 kPa	31.58 mPa·s

Conditions	mass density [kg/m3]
273.15 K	981.12
278.15 K	977.18
283.15 K	973.25
288.15 K	969.32
293.15 K	965.4
298.15 K	961.49
303.15 K	957.57
313.15 K	949.73
323.15 K	941.92
333.15 K	934.11
343.15 K	926.28
353.15 K	918.45
363.15 K	910.61

CCCCC(CC)COC(=O)c1ccccc1C(=O)OCC(CC)CCCC (stereo not drawn) [bis(2-ethylhexyl) 1,2-benzenedicarboxylate]
Conditions	viscosity
273.15 K, 100 kPa	359.9 mPa·s and 359.7 mPa·s
273.15 K, 24100 kPa	680.7 mPa·s
283.15 K, 100 kPa	158 mPa·s and 158.6 mPa·s
283.15 K, 400 kPa	160.2 mPa·s
283.15 K, 20800 kPa	266.5 mPa·s
283.15 K, 41000 kPa	430.5 mPa·s
283.15 K, 60000 kPa	663.5 mPa·s
283.15 K, 80400 kPa	1034 mPa·s
283.15 K, 100100 kPa	1566 mPa·s
283.15 K, 123400 kPa	2473 mPa·s
298.15 K, 100 kPa	58.79 mPa·s and 57.58 mPa·s and 57.59 mPa·s
298.15 K, 600 kPa	59.35 mPa·s
298.15 K, 25800 kPa	103.4 mPa·s
298.15 K, 50000 kPa	167.4 mPa·s
298.15 K, 50900 kPa	174.2 mPa·s
298.15 K, 76300 kPa	287.8 mPa·s
298.15 K, 100500 kPa	455.2 mPa·s
298.15 K, 126600 kPa	730.7 mPa·s
298.15 K, 150400 kPa	1103 mPa·s
298.15 K, 174300 kPa	1631 mPa·s
298.15 K, 199800 kPa	2527 mPa·s
303.15 K, 100 kPa	44.29 mPa·s and 44.2 mPa·s and 43.49 mPa·s
310.93 K, 100 kPa	28.88 mPa·s [middle of 4 runs]
310.93 K, 47400 kPa	73.56 mPa·s
310.93 K, 75300 kPa	120.3 mPa·s
310.93 K, 99500 kPa	185.1 mPa·s
310.93 K, 148600 kPa	413.1 mPa·s
310.93 K, 176000 kPa	617.9 mPa·s
310.93 K, 201800 kPa	912.7 mPa·s
310.93 K, 223800 kPa	1259 mPa·s
310.93 K, 247800 kPa	1794 mPa·s
310.93 K, 250800 kPa	1819 mPa·s
310.93 K, 274000 kPa	2555 mPa·s
313.15 K, 100 kPa	26.6 mPa·s and 26.58 mPa·s
323.15 K, 100 kPa	17.17 mPa·s and 17.01 mPa·s and 17.1 mPa·s
323.15 K, 700 kPa	17.26 mPa·s
323.15 K, 10600 kPa	20.76 mPa·s
323.15 K, 25700 kPa	27.26 mPa·s
323.15 K, 50700 kPa	42.19 mPa·s
323.15 K, 75600 kPa	63.74 mPa·s
323.15 K, 100600 kPa	94.67 mPa·s
323.15 K, 125600 kPa	138.7 mPa·s
323.15 K, 150600 kPa	200.2 mPa·s
323.15 K, 175600 kPa	286.3 mPa·s
323.15 K, 200300 kPa	403.4 mPa·s
323.15 K, 223100 kPa	539 mPa·s
323.15 K, 252300 kPa	794.8 mPa·s
323.15 K, 276700 kPa	1055.1 mPa·s
323.15 K, 295400 kPa	1355.1 mPa·s
323.15 K, 323700 kPa	1952.3 mPa·s
333.15 K, 100 kPa	11.73 mPa·s and 11.71 mPa·s
343.15 K, 100 kPa	8.499 mPa·s and 8.51 mPa·s
348.15 K, 100 kPa	7.416 mPa·s and 7.422 mPa·s
348.15 K, 50800 kPa	15.52 mPa·s
348.15 K, 54100 kPa	16.45 mPa·s
348.15 K, 75900 kPa	22.09 mPa·s
348.15 K, 100800 kPa	30.91 mPa·s
348.15 K, 103500 kPa	32.17 mPa·s
348.15 K, 125800 kPa	42.61 mPa·s
348.15 K, 150800 kPa	58.12 mPa·s
348.15 K, 175700 kPa	78.72 mPa·s
348.15 K, 200700 kPa	105.6 mPa·s
348.15 K, 225500 kPa	140.4 mPa·s
348.15 K, 250300 kPa	185.6 mPa·s
348.15 K, 275000 kPa	243.8 mPa·s
348.15 K, 299100 kPa	316.7 mPa·s
348.15 K, 324100 kPa	412.7 mPa·s
348.15 K, 348100 kPa	529.4 mPa·s
348.15 K, 371000 kPa	669 mPa·s

Conditions	mass density [kg/m3]
273.15 K	998.82
278.15 K	995.01
283.15 K	991.26
293.15 K	983.87
298.15 K	980.15
303.15 K	976.42
313.15 K	968.98
323.15 K	961.53
333.15 K	954.11
343.15 K	946.68
353.15 K	939.27
363.15 K	931.85
